From US8273723B2, “Compositions and methods for improved glycoprotein sialylation” (Sigma-Aldrich Co. LLC, priority 2007, dated 2012) come the findings set out here.

Series [1] has as its system proteins encoded by the CHO Neu1, Neu2, and Neu3 genes. The series is described as follows: Sialidase assay in the presence of sialidase inhibitors, all sialidases. To be noted: two concentrations, FIG. 2. Type of series: biochemical, CHO (Chinese hamster ovary). As for the experimental part: (§1) Enzymatic sialidase activity studies were performed to confirm that the proteins coded by these two new genes having the expected functions in CHO cells. Briefly, the coding regions for the Neu1 (SEQ ID NO:1) and Neu3 (SEQ ID NO:3) genes, as well as the coding region of the previously reported Neu2 gene (Ferrari et al. (1994) Glycobiology 4(3):367-373) were cloned into pcDNA3.1 mammalian expression vectors. The expression constructs then were transfected into COS7 cells to overexpress the sialidase proteins. The pcDNA3.1 vector alone was also transfected into COS7 cells as the mock transfection. An expression construct containing green fluorescence protein (GFP) was cotransfected into the COS7 cells to normalize the transfection efficiency.
(§2) Twenty-four hours after transfection, the cells were lysed by sonication. The cell debris was removed by centrifugation at 1000×g for 10 min at 4° C. and the supernatant factions were collected for enzymatic activity. The sialidase assay was performed as previously described (Gramer et al. (1993) Biotechnol Prog 9: 366-373) using 1 mM of 4-methylumbelliferone-Neu5Ac as substrate. For each lysate, 100 μg of protein was used in the assay. The assay was performed in triplicate. […] In fact, the Neu3 protein had more than approximately 6-15 times as much activity as Neu2. […]

For the next series, the system named is CHO Neu3. The series is described as follows: Sialidase assay in the presence of sialidase inhibitors, CHO Neu3. The class given is biochemical, CHO (Chinese hamster ovary). As for the experimental part: as §1, §2
In series [2] the test system is hIFNγ protein produced by CHO-hIFNγ cells. The series is described as follows: Sialic acid content of purified hIFNγ from shRNA CHO cells by HPLC. Type of series: cell-based, CHO (Chinese hamster ovary). To be noted: for levels of sialic acid in hIFNγ protein versus non-target shRNA control: day 6; for sialic acid content of hIFNγ protein: n=4. As for the experimental part: The levels of sialic acid were analyzed by HPLC in human IFNγ protein produced by the sialidase shRNA targeted cells and non-target shRNA control cells. Spent media samples were collected from 5 L bioreactor cultures at stationary phase (day 6, cell viability around 95%) and death phase (day 13, cell viability around 20%). Human interferon gamma proteins were purified from cell culture supernatants by immunoaffinity purification. Briefly, after centrifugation and filtration to remove cell debris, 30 ml of a protein sample was loaded on an affinity column conjugated with hIFNγ antibody. After washing the column, hIFNγ protein was eluted with elution buffer. Purification was carried out on an AKTA Explorer 100 chromatographic system (Amersham Biosciences). The purified protein was quantified by ELISA as previously described.
The sialylation of purified hIFNγ proteins were analyzed by HPLC. Briefly, 50 μg of purified hIFNγ protein sample was lyophilized and resuspended in 100 μl of ultrapure water with 2N acetic acid. The sample was hydrolyzed at 80° C. for 3 hours. Then the sample was filtered and speed-vac dried. Released sialic acid residues were derivatized with a fluorogenic compound, 1,2-diamino-4,5-(methylenedioxy)benzene (DMB), followed by HPLC using C18 reverse phase column.

In a further series the test system is Neu1 mRNA. The experiment in a line: Q-RT PCR of Neu1 mRNA in stably shRNA-transduced CHO-hIFNγ cells. As to conditions: FIG. 7A. The class given is cell-based, CHO (Chinese hamster ovary). As for the experimental part:
(§3) The expression of each of the three CHO sialidase genes was knocked down using small interfering RNA (siRNA) technologies. Based on the cDNA sequences, several siRNAs against the CHO sialidase genes (Neu1, Neu2, and Neu3) were designed and synthesized for each gene. These siRNAs were transfected into a CHO cell line stably expressing human interferon gamma (CHO-hIFNγ). The transfections were performed in duplicate. Forty-eight hours after transfection, the cells were harvested. RNA and protein were isolated from the transfected cells. Reverse transcription polymerase chain reaction, (RT-PCR) and quantitative RT-PCR (Q-RT-PCR) using gene-specific primers were performed using standard procedures.
(§4) DNA fragments encoding the effective siRNAs for each sialidase gene (Neu1-S4, Neu2-S3, Neu3-S2) were cloned into the pLKO.1-puro shRNA expression vector. After DNA sequencing confirmation, plasmid DNAs were transfected into HEK293 cells to produce lentivirus packed with shRNA cassettes. After infection of suspension CHO-hIFNγ cells with lentivirus containing shRNA cassettes and puromycin selection, CHO-hIFNγ cells harboring shRNA cassettes for Neu1, Neu2 and Neu3 genes were obtained. Q-RT PCR was performed to confirm gene-silencing effects at the level of mRNA (FIG. 7). […]

The subject of a further series is Neu2 mRNA. The experiment in a line: Q-RT PCR of Neu2 mRNA in stably shRNA-transduced CHO-hIFNγ cells. The class given is cell-based, CHO (Chinese hamster ovary). As to conditions: FIG. 7B. As for the experimental part:
as §3, §4

Series [3] deals with sialidase activity in CHO-hIFNγ cells. The series is described as follows: Sialidase activity assay in CHO-hIFNγ cells harboring shRNA. Type of series: cell-based, CHO (Chinese hamster ovary). To be noted: stable shRNA, FIG. 8. As for the experimental part: (§5) Twenty-four hours after transfection, the cells were lysed by sonication. The cell debris was removed by centrifugation at 1000×g for 10 min at 4° C. and the supernatant factions were collected for enzymatic activity. The sialidase assay was performed as previously described (Gramer et al. (1993) Biotechnol Prog 9: 366-373) using 1 mM of 4-methylumbelliferone-Neu5Ac as substrate. For each lysate, 100 μg of protein was used in the assay. The assay was performed in triplicate. […] In fact, the Neu3 protein had more than approximately 6-15 times as much activity as Neu2.
as §4, with “7). The mRNA expression knockdown of Neu1 (Neu1-S4) was over 95% in Neu1-shRNA cells (FIG. 7A), about 50% knockdown with Neu2 (Neu2-S3) in Neu2-shRNA cells (FIG. 7B), and over 70% knockdown with Neu3 (Neu3-S2) in Neu3-shRNA cells (FIG. 7C).” for “7).”

The test system of a further series is Neu3 mRNA. The series is described as follows: Q-RT PCR of Neu3 mRNA in stably shRNA-transduced CHO-hIFNγ cells. The class given is cell-based, CHO (Chinese hamster ovary). As to conditions: FIG. 7C. As for the experimental part:
as §3, §4

Series [4] can be described thus: Sialidase assay on lysates of COS7 cells overexpressing CHO sialidase proteins. The class given is biochemical, CHO (Chinese hamster ovary). As for the experimental part: as §1, §5

As for `CC(=O)N[C@H]1[C@H]([C@H](O)[C@H](O)CO)OC(C(=O)O)=C[C@@H]1O` [Neu5Ac2en], in series [1], the “inhibitory effect on sialidase activity (comparison of the two inhibitors)” value was “greater inhibitory effects than Neu5Ac”. The “decrease of sialidase activity” value with CHO Neu3 (0.1 mM inhibitor) is reported as “about 30%”. Further, the “reduction of sialidase activity” value with CHO Neu3 (0.5 mM inhibitor) is “about 60%”.

As to “Neu1-S4: siRNA/shRNA against CHO Neu1; sense GGACACUACGCGUCAUCUGtt (SEQ ID NO 10), antisense CAGAUGACGCGUAGUGUCCtt (SEQ ID NO 11) (sense GGACACUACGCGUCAUCUGTT; antisense CAGAUGACGCGUAGUGUCCTT; chemistry not given here; listed as Cricetulus griseus)”, the “levels of sialic acid in hIFNγ protein versus non-target shRNA control” value in series [2] was “not significantly different”. Besides, the “sialylation of hIFNγ versus non-target shRNA control” value in series [2] (day 13) is “no obvious improvement”. Further, the “mRNA expression knockdown of Neu1” value in the series with Neu1 mRNA is listed as “over 95%”.

For the molecule “Neu2-S3: siRNA/shRNA against CHO Neu2; sense GACGGAUGAGCAUGCAGAUtt (SEQ ID NO 14), antisense AUCUGCAUGCUCAUCCGUCtt (SEQ ID NO 15) (sense GACGGAUGAGCAUGCAGAUTT; antisense AUCUGCAUGCUCAUCCGUCTT; chemistry not given here; listed as Cricetulus griseus)”, the “mRNA expression knockdown of Neu2” value in the series with Neu2 mRNA is listed as “about 50%”. Further, in series [2], the “levels of sialic acid in hIFNγ protein versus non-target shRNA control” value is on record as “not significantly different”. In addition, the “sialic acid content of hIFNγ protein” value is reported as 1.945±0.111 pmol sialic acid/pmol hIFNγ in series [2] (day 6 (stationary phase)) and 4.948±0.150 pmol sialic acid/pmol hIFNγ in series [2] (day 13 (death phase)).

“Neu3-S2: siRNA/shRNA against CHO Neu3; sense GUACCAGCCGUGUGUUACUtt (SEQ ID NO 18), antisense AGUAACACACGGCUGGUACtt (SEQ ID NO 19) (sense GUACCAGCCGUGUGUUACUTT; antisense AGUAACACACGGCUGGUACTT; chemistry not given here; listed as Cricetulus griseus)”: in series [2] (day 6 (stationary phase)), the “sialic acid content of hIFNγ protein” value is recorded as 2.133±0.101 pmol sialic acid/pmol hIFNγ. In addition, in series [3], the “sialidase activity compared to non-target shRNA control” value was “most dramatic reduction”. The “mRNA expression knockdown of Neu3” value with Neu3 mRNA is listed as “over 70%”.

B1: CHO Neu3: CHO plasma membrane-associated sialidase, 417 aa, SEQ ID NO:4 (protein, listed as Cricetulus griseus)
chain: MEEVSACSLNSTLFQQEHQKGTTYRIPALLYIPPSHTFLAFAEKRSSSKDVDALHLVLRRGVMKGHSVEWGPLQPLMEATLPGHRTMNPCPVWEQSTSRVLLFFICVPDRVTEHWQIRSGKNAARLCFLCSQDAGCSWGEVKDLTEEVIGSELKHWATFAVGPGHGIRLQSGRLIIPTYAYYFSCRFLCFPCSVKPHSLMIYSDDLGVTWHHGKLIGPQVTGECQVAEVTGTSGNLVLYCNARTPNRFRAESFSTDYGDCFQKPTLNTQLCEPRYGCQGSIVSFQPLKMPFSQDPIGKAAPTTQKSPLLDSFLEREEGVGRPSGTWLLYSHPTSKKRRINLGIYYNRNPLEVTCWSRPWILHCGPCGYSDLAVVEEQGLFACLFECGQEHECEQIAFRLFSVQEVLSCEDCTGPSRD
As to B1, the “sialic acid content of hIFNγ protein” value in series [2] (day 13 (death phase)) was 5.175±0.414 pmol sialic acid/pmol hIFNγ. In series [4] (100 μg lysate protein, 1 mM 4-methylumbelliferone-Neu5Ac, normalized with GFP readings), the “sialidase activity compared to negative control (mock transfection) and positive control (Neu2)” value is listed as “significant sialidase activities”. The “sialidase activity relative to Neu2” value in series [4] (more than approximately, lysates of transfected COS7 cells) is on record as 6-15 times.
